Biological target: Epidermal growth factor receptor (Homo sapiens, UniProt P00533)
Test: Inhibition of EGFR (unknown origin)

Epidermal growth factor receptor, sequence (P00533 whole entry): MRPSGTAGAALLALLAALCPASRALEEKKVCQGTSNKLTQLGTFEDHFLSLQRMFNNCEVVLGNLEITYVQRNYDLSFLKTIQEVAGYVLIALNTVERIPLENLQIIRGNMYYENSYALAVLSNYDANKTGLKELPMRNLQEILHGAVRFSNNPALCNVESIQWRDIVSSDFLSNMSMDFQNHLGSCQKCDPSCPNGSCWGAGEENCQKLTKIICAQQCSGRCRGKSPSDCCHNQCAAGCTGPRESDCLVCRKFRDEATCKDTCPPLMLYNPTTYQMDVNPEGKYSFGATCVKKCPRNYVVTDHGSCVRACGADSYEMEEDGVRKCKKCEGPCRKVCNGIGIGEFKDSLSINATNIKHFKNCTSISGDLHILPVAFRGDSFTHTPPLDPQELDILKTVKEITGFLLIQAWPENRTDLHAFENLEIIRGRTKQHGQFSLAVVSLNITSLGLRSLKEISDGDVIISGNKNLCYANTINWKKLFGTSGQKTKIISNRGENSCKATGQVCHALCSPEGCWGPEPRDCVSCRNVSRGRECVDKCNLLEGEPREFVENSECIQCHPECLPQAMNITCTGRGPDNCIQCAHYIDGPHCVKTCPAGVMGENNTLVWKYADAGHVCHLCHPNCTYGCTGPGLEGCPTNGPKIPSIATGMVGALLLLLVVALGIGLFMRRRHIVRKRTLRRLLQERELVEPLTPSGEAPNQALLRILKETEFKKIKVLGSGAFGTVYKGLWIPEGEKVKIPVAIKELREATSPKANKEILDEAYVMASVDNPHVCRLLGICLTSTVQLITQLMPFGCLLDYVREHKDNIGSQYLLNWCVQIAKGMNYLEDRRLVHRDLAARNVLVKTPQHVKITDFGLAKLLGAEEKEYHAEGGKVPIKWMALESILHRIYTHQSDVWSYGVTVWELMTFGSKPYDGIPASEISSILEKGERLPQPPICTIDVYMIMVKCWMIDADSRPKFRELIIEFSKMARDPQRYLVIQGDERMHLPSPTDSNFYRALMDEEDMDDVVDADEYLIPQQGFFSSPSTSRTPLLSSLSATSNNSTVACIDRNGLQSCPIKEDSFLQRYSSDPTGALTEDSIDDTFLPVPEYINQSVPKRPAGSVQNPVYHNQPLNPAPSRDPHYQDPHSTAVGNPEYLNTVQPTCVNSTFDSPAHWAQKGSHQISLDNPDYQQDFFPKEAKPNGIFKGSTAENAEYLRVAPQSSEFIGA

`N=C1N=C(NCCS(=O)(=O)O)/C(=C/C(O)CNC(=O)c2cc(Br)c(Br)[nH]2)N1` (centres undefined) [TAUROACIDIN A] showed an IC50 of 37.9 µM.
`N=C1NC(=O)/C(=C2/CCNC(=O)c3[nH]cc(Br)c32)N1` showed an IC50 of 18.5 µM.
For `N=C1NC(=O)/C(=C2/CCNC(=O)c3[nH]c(Br)c(Br)c32)N1`, the IC50 was 21.1 µM.
For `COc1ccc(Cc2nc(-c3cc(Br)c(OCCCN(C)C)c(Br)c3)c[nH]c2=O)cc1Br` [Ma'edamine A], the IC50 was 10.6 µM.
